In PMC6095626, “Screening of the Pathogen Box for inhibitors with dual efficacy against Giardia lamblia and Cryptosporidium parvum” (PLoS Neglected Tropical Diseases, 2018):
“Also recorded” adds a separate entry of the source.

Key:
[1] = tested on: G. lamblia trophozoites (luciferase expressing, WBC6); test: microbe, parasite or virus in culture; type: cell-based, Giardia lamblia; conditions: for Giardia (16 uM) Mean % inhibition: initial Pathogen Box screen, single concentration 16 µM, inhibition compared to DMSO wells; for G. lamblia inhibition of parasite growth in the initial screen: 16 μM; for G. lamblia inhibition of parasite growth in the initial screen / G. lamblia EC50: 24 hours; for G. lamblia EC50: luciferase expressing G. lamblia trophozoites, D-luciferin bioluminescence read-out
Outline: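 Incubation ran 24 h at 37 °C under anaerobic conditions, with compound added in equal volume to trophozoites (WBC6, luciferase-expressing, 250,000 cells/mL). Bioluminescence was the read-out, cross-checked by MOXI Z counts on a duplicate plate; metronidazole served as control (1:2 dilutions from 40 μM).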

[2] = tested on: C. parvum (UGA1 Nluc expressing strain in HCT-8 cells); test: microbe, parasite or virus in culture; type: cell-based, Cryptosporidium parvum; conditions: for Crypto (10 uM) Mean % inhibition: initial Pathogen Box screen, single concentration 10 µM, inhibition compared to DMSO wells; for EC50: Nluc C. parvum in HCT-8 cells, read-out: C. parvum EC50
Outline: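 Parasite growth quantified by NanoLuc luminescence from lysed infected HCT-8 cells, with EC50 fitted from dose curves. Compounds, single-dose 10 μM or serially diluted, were added to confluent 48 h monolayers before infection with bleached UGA1 Nluc oocysts.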

Structure (SMILES): CN(C(=O)c1cc2c(-c3cncnc3)cccc2[nH]1)c1ccccc1 [MMV024443]
- Giardia (16 uM) Mean % inhibition [1]: X* (Mean or standard deviation are negative but not significantly different from the control to be a growth promoter)
- Crypto (10 uM) Mean % inhibition [2]: 87%

Structure (SMILES): CCCc1ccc(S(=O)(=O)Nc2ccc(CN3CCN(CC4CC4)CC3)cc2)cc1 [MMV688125]
- Giardia (16 uM) Mean % inhibition [1]: 59%
- Crypto (10 uM) Mean % inhibition [2]: 50%

Structure (SMILES): O=C(NCCc1ccn(-c2ccccc2)n1)C1CCCCC1 [MMV688795]
- Giardia (16 uM) Mean % inhibition [1]: 29%
- Crypto (10 uM) Mean % inhibition [2]: X* (Mean or standard deviation are negative but not significantly different from the control to be a growth promoter)

Structure (SMILES): CC(C)(C)c1cc(C(=O)Nc2cccnc2)cc(C(=O)Nc2cccnc2)c1 [MMV020982]
- Giardia (16 uM) Mean % inhibition [1]: 10%
- Crypto (10 uM) Mean % inhibition [2]: 67%

Structure (SMILES): Cc1ccc2[nH]c3c(NCCN(C)C)ncnc3c2c1 [MMV006372]
- Giardia (16 uM) Mean % inhibition [1]: 21%
- Crypto (10 uM) Mean % inhibition [2]: 64%

Structure (SMILES): CNC1C(OC2C(OC3C(O)C(O)C(N=C(N)N)C(O)C3N=C(N)N)OC(C)C2(O)C=O)OC(CO)C(O)C1O (stereo not shown) [MMV688994]
- Giardia (16 uM) Mean % inhibition [1]: X* (Mean or standard deviation are negative but not significantly different from the control to be a growth promoter)
- Crypto (10 uM) Mean % inhibition [2]: 47%

Structure (SMILES): CS(=O)(=O)c1ccccc1C(=O)N(Cc1ccccc1)c1ccccc1 [MMV688798]
- Giardia (16 uM) Mean % inhibition [1]: 9%
- Crypto (10 uM) Mean % inhibition [2]: 46%

Structure (SMILES): CC(=O)NC[C@H]1CN(c2ccc(-c3ccc(CNCc4cn[nH]n4)cc3)c(F)c2)C(=O)O1 [MMV688327]
- Giardia (16 uM) Mean % inhibition [1]: 21%
- Crypto (10 uM) Mean % inhibition [2]: 33%

Structure (SMILES): Nc1ccc(C(=O)Nc2ccc(-c3nc4ccccc4o3)cc2)cc1 [MMV007920]
- Giardia (16 uM) Mean % inhibition [1]: 60%
- Crypto (10 uM) Mean % inhibition [2]: 63%

Structure (SMILES): Cc1cc2nc(NC(=O)C(C)(C)C)nc(Cl)c2n1Cc1ccc(Cl)cc1 [MMV688704]
- Giardia (16 uM) Mean % inhibition [1]: 42%
- Crypto (10 uM) Mean % inhibition [2]: 76%

Structure (SMILES): CC(C)(CN)c1nc(-c2ccc(Cl)c(O)c2)c(-c2ccnc(N)n2)[nH]1 [MMV030734]
- Giardia (16 uM) Mean % inhibition [1]: 35%
- Crypto (10 uM) Mean % inhibition [2]: X* (Mean or standard deviation are negative but not significantly different from the control to be a growth promoter)

Structure (SMILES): O=C(NCCc1c[nH]c2ccccc12)c1cc2ccccc2oc1=O [MMV676539]
- Giardia (16 uM) Mean % inhibition [1]: 7%
- Crypto (10 uM) Mean % inhibition [2]: 22%

Structure (SMILES): O=C(Nc1n[nH]c(=S)s1)c1cc(Br)ccc1Cl [MMV676492]
- Giardia (16 uM) Mean % inhibition [1]: X* (Mean or standard deviation are negative but not significantly different from the control to be a growth promoter)
- Crypto (10 uM) Mean % inhibition [2]: 57%

Structure (SMILES): CC(C)(C)c1cc(C(=O)N2CCN(c3nccnc3C#N)CC2)n(Cc2ccccc2)n1 [MMV023949]
- Giardia (16 uM) Mean % inhibition [1]: 36%
- Crypto (10 uM) Mean % inhibition [2]: 55%

Structure (SMILES): O=C1COCc2ccc(Br)cc2N1Cc1ccc(C(F)(F)F)cc1 [MMV032995]
- Giardia (16 uM) Mean % inhibition [1]: 38%
- Crypto (10 uM) Mean % inhibition [2]: 41%

Structure (SMILES): O=C(c1n[nH]c2c1CCCC2)N1CCN(Cc2ccc3c(c2)OCO3)CC1 [MMV676389]
- Giardia (16 uM) Mean % inhibition [1]: 66%
- Crypto (10 uM) Mean % inhibition [2]: X* (Mean or standard deviation are negative but not significantly different from the control to be a growth promoter)

Structure (SMILES): Cc1ccc(NC(=O)c2nc[nH]c2C(=O)Nc2nc3ccccc3[nH]2)c(C)c1 [MMV011903]
- Giardia (16 uM) Mean % inhibition [1]: 21%
- Crypto (10 uM) Mean % inhibition [2]: 62%

Structure (SMILES): Cc1ccc2oc(-c3cc(NC(=O)Cc4ccccc4)ccc3Cl)nc2c1 [MMV676509]
- Giardia (16 uM) Mean % inhibition [1]: 27%
- Crypto (10 uM) Mean % inhibition [2]: 56%

Structure (SMILES): FC(F)(F)c1cnc(Sc2nnc(-c3ccncc3)o2)c(Cl)c1 [MMV011765]
- Giardia (16 uM) Mean % inhibition [1]: 53%
- Crypto (10 uM) Mean % inhibition [2]: 89%

Structure (SMILES): Cc1cnc(N2CCN[C@@H](Cc3ccccc3)C2)nc1Oc1ccc(-n2ccnc2)cc1 [MMV687765]
- Giardia (16 uM) Mean % inhibition [1]: 49%
- Crypto (10 uM) Mean % inhibition [2]: 39%

Structure (SMILES): CCN(CC)C(=O)N1CCN(C)CC1 [MMV002816]
- Giardia (16 uM) Mean % inhibition [1]: 29%
- Crypto (10 uM) Mean % inhibition [2]: X* (Mean or standard deviation are negative but not significantly different from the control to be a growth promoter)

Structure (SMILES): COc1cc(C2=NCCN2)ccc1-c1cn(-c2cccc(C3=NCCN3)c2)nn1 [MMV688407]
- Giardia (16 uM) Mean % inhibition [1]: 50%
- Crypto (10 uM) Mean % inhibition [2]: X* (Mean or standard deviation are negative but not significantly different from the control to be a growth promoter)

Structure (SMILES): O=C(NC1CCCCC1)N1CCN(Cc2ccc3c(c2)OCO3)CC1 [MMV676444]
- Giardia (16 uM) Mean % inhibition [1]: 30%
- Crypto (10 uM) Mean % inhibition [2]: 67%

Structure (SMILES): Cc1ccc(-c2cc(C(=O)Nc3cccnc3)c3cc(Br)ccc3n2)cc1 [MMV016838]
- Giardia (16 uM) Mean % inhibition [1]: 63%
- Crypto (10 uM) Mean % inhibition [2]: 42%

Structure (SMILES): Cc1cc(C)c2cc(C(=O)NC3CCCCCCC3)[nH]c2c1 [MMV687146]
- Giardia (16 uM) Mean % inhibition [1]: 15%
- Crypto (10 uM) Mean % inhibition [2]: 33%

Structure (SMILES): C[C@H]1COC2(CCN(c3nc(=O)c4cc(C(F)(F)F)cc([N+](=O)[O-])c4s3)CC2)O1 [MMV676603]
- Giardia (16 uM) Mean % inhibition [1]: 77%
- Crypto (10 uM) Mean % inhibition [2]: X* (Mean or standard deviation are negative but not significantly different from the control to be a growth promoter)

Structure (SMILES): Cc1cccc(C(=O)Nc2ccnc(N(C)C3CCN(CC(C)C)CC3)c2)c1 [MMV024829]
- Giardia (16 uM) Mean % inhibition [1]: 89%
- Crypto (10 uM) Mean % inhibition [2]: X* (Mean or standard deviation are negative but not significantly different from the control to be a growth promoter)

Structure (SMILES): CCCCc1ccc(NC(=O)Nc2ccc(O[C@H]3CCCC[C@@H]3N(C)c3ccccc3)c(F)c2)cc1 [MMV676063]
- Giardia (16 uM) Mean % inhibition [1]: 29%
- Crypto (10 uM) Mean % inhibition [2]: 82%

Structure (SMILES): FC(F)(F)c1cc(NCCc2ccccc2)nc(-c2ccccn2)n1 [MMV659010]
- Giardia (16 uM) Mean % inhibition [1]: 41%
- Crypto (10 uM) Mean % inhibition [2]: 15%

Structure (SMILES): COc1ccc(Cl)cc1NC(=O)CN(C)C(=O)c1cnn(-c2ccccc2)n1 [MMV020710]
- Giardia (16 uM) Mean % inhibition [1]: 7.5%
- Crypto (10 uM) Mean % inhibition [2]: 43%

Structure (SMILES): O=C(CCC1CCCCC1)Nc1cccc(-c2nnc(-c3ccco3)o2)c1 [MMV676589]
- Giardia (16 uM) Mean % inhibition [1]: 40%
- Crypto (10 uM) Mean % inhibition [2]: 42%

Structure (SMILES): COc1cc(CN2CCC3(C=Cc4ccccc43)CC2)cc2c1OCO2 [MMV688941]
- Giardia (16 uM) Mean % inhibition [1]: 62%
- Crypto (10 uM) Mean % inhibition [2]: 56%

Structure (SMILES): CNC(=O)C1Cc2c([nH]c3cc(Cl)ccc23)C2(CCN(CCc3ccccc3)CC2)N1 (stereo not shown) [MMV031011]
- Giardia (16 uM) Mean % inhibition [1]: 81%
- Crypto (10 uM) Mean % inhibition [2]: 72%

Structure (SMILES): CN1CCN(c2cc(-c3ccc(F)cc3)nc(-c3ccncc3)n2)CC1 [MMV688888]
- Giardia (16 uM) Mean % inhibition [1]: 62%
- Crypto (10 uM) Mean % inhibition [2]: 84%

Structure (SMILES): COc1ccccc1CNC(=O)c1cc(C2CC2)nc2c1cnn2C(C)C [MMV020517]
- Giardia (16 uM) Mean % inhibition [1]: X* (Mean or standard deviation are negative but not significantly different from the control to be a growth promoter)
- Crypto (10 uM) Mean % inhibition [2]: X* (Mean or standard deviation are negative but not significantly different from the control to be a growth promoter)

Structure (SMILES): Clc1cccc(C(c2ccc(CN3CCNCC3)cc2)n2ccnc2)c1 (stereo not shown) [MMV663250]
- Giardia (16 uM) Mean % inhibition [1]: 14%
- Crypto (10 uM) Mean % inhibition [2]: 52%

Structure (SMILES): CC(C)(C)n1nc(Cc2ccc(F)c(Cl)c2)c2c(N)ncnc21 [MMV688852]
- Giardia (16 uM) Mean % inhibition [1]: 27%
- Crypto (10 uM) Mean % inhibition [2]: 80%

Structure (SMILES): O=C(OCc1ccccc1)N1CCC(c2cc(-c3ccncc3)c(-c3ccc(F)cc3)[nH]2)CC1 [MMV688509]
- Giardia (16 uM) Mean % inhibition [1]: 41%
- Crypto (10 uM) Mean % inhibition [2]: X* (Mean or standard deviation are negative but not significantly different from the control to be a growth promoter)

Structure (SMILES): O=C(NCc1cc(Cl)cc(Cl)c1)c1c(C(F)(F)F)nc2ccccn12 [MMV687699]
- Giardia (16 uM) Mean % inhibition [1]: 16%
- Crypto (10 uM) Mean % inhibition [2]: 32%

Structure (SMILES): CCOC(=O)c1c(NC(=O)c2c(F)c(F)c(F)c(F)c2F)sc(C(N)=O)c1C [MMV153413]
- G. lamblia inhibition of parasite growth in the initial screen [1]: ≥ 95%
- Giardia (16 uM) Mean % inhibition [1]: 97%
- G. lamblia EC50 [1]: not potent
- Crypto (10 uM) Mean % inhibition [2]: X* (Mean or standard deviation are negative but not significantly different from the control to be a growth promoter)

Structure (SMILES): Cc1nn(C)c(C)c1NS(=O)(=O)c1c(Cl)cc(-c2ccnc(N3CCNCC3)c2)cc1Cl [MMV688180]
- Giardia (16 uM) Mean % inhibition [1]: 21%
- Crypto (10 uM) Mean % inhibition [2]: 66%

Structure (SMILES): CC1(C)OB(O)c2ccc(C3=NOC(c4cc(Cl)c(F)c(Cl)c4)(C(F)(F)F)C3)cc21 (stereo not shown) [MMV687775]
- Giardia (16 uM) Mean % inhibition [1]: X* (Mean or standard deviation are negative but not significantly different from the control to be a growth promoter)
- Crypto (10 uM) Mean % inhibition [2]: 56%

Structure (SMILES): Cc1ncc(-c2ccnc(Nc3ccc(S(C)(=O)=O)cc3)n2)n1C(C)C [MMV676604]
- Giardia (16 uM) Mean % inhibition [1]: 92%
- G. lamblia EC50 [1]: not effective; also recorded: not potent
- EC50 ([2]; 48 hours): 2.9 µM
- Crypto (10 uM) Mean % inhibition [2]: 92%

Structure (SMILES): O=C(NC1CC1)c1ccc(CSCc2ccccc2Cl)o1 [MMV007803]
- Giardia (16 uM) Mean % inhibition [1]: 6%
- Crypto (10 uM) Mean % inhibition [2]: X* (Mean or standard deviation are negative but not significantly different from the control to be a growth promoter)

Structure (SMILES): CCc1c(C)nc(-n2nc(C)cc2NC(=O)c2ccccc2SC)[nH]c1=O [MMV676477]
- Giardia (16 uM) Mean % inhibition [1]: 28%
- C. parvum cell growth inhibition in the initial screen ([2]; 10 μM, 48 hours): ≥ 95%
- EC50 ([2]; 48 hours): 0.22 µM
- Crypto (10 uM) Mean % inhibition [2]: 96%

Structure (SMILES): CN1CCN(S(=O)(=O)c2ccc(-c3ccc4c(Nc5ncc(Cl)cn5)ccnc4c3)cc2)CC1 [MMV688283]
- G. lamblia inhibition of parasite growth in the initial screen [1]: ≥ 95%
- Giardia (16 uM) Mean % inhibition [1]: 95%
- G. lamblia EC50 [1]: not potent
- Crypto (10 uM) Mean % inhibition [2]: 89%
